Source: publication PMC6269737, “Effect of Honokiol on Cytochrome P450 and UDP-Glucuronosyltransferase Enzyme Activities in Human Liver Microsomes” (Molecules, 2013)

Experiments:
CYP3A4 = CYP3A4 (Homo sapiens, UniProt P08684); assay: biochemical; conditions: IC50 (μM) of honokiol, Midazolam 1'-hydroxylation
Experimental: The inhibitory potential (IC50 values) of honokiol on CYP activities was evaluated in pooled human liver microsomes using liquid chromatography-tandem mass spectrometry (LC-MS/MS). […] Honokiol was dissolved in acetonitrile. […] […] The reaction was then stopped by placement of the tubes on ice and adding 100 μL of ice-cold methanol containing internal standards (^13C2, ^15N-acetaminophen for acetaminophen and N-deethylamodiaquine, and d9-1-hydroxybufuralol for 4-hydroxydiclofenac, 4-hydroxybupropion, 7-hydroxycoumarin, 4-hydroxymephenytoin, 1'-hydroxybufuralol, and 1'-hydroxymidazolam). The incubation mixtures were then centrifuged at 13,000 × g for 4 min. All incubations were performed in triplicate, and average values were used.
(§1) The reaction was initiated by the addition of the cocktail containing seven CYP probe substrates and bupropion.
(§2) The metabolites formed from the seven CYP cocktail substrates were simultaneously determined according to our previously described LC-MS/MS method with minor modification; the concentration of 4-hydroxybupropion for CYP2B6 activity was quantified separately by LC-MS/MS. A tandem mass spectrometer (TSQ Quantum Access, Thermo Scientific, San Jose, CA, USA) coupled with a Nanospace SI-2 LC system (Tokyo, Japan) was used. […] Quantification was performed by selected reaction monitoring (SRM) of [M+H]^+ ions and the related product ions for each metabolite. […]

CYP2A6 = biological target: T1, CYP2A6 (Homo sapiens, UniProt P11509); conditions: microsomes
T1 sequence (P11509 1-494): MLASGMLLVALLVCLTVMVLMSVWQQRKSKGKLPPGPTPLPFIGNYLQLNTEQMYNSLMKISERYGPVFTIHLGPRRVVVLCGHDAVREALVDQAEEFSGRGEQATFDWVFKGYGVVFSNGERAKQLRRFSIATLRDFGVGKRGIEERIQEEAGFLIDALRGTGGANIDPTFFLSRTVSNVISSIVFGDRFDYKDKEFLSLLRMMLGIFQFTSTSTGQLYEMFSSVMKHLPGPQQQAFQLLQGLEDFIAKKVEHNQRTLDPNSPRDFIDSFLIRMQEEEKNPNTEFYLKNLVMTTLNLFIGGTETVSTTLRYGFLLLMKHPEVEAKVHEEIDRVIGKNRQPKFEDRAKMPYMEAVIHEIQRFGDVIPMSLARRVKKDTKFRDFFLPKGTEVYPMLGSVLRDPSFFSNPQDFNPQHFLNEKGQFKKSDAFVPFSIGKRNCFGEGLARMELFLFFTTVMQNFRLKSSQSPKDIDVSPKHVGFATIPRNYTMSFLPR
Experimental: The inhibitory potential (IC50 values) of honokiol on CYP activities was evaluated in pooled human liver microsomes using liquid chromatography-tandem mass spectrometry (LC-MS/MS). […] Honokiol was dissolved in acetonitrile. […] After a 3 min preincubation at 37 °C, the reactions were initiated by addition of an NADP generating system and incubated for 15 min at 37 °C in a shaking water bath. The reaction was then stopped by placement of the tubes on ice and adding 100 μL of ice-cold methanol containing internal standards (^13C2, ^15N-acetaminophen for acetaminophen and N-deethylamodiaquine, and d9-1-hydroxybufuralol for 4-hydroxydiclofenac, 4-hydroxybupropion, 7-hydroxycoumarin, 4-hydroxymephenytoin, 1'-hydroxybufuralol, and 1'-hydroxymidazolam). The incubation mixtures were then centrifuged at 13,000 × g for 4 min. All incubations were performed in triplicate, and average values were used. […]
as §2, with “LC-MS/MS.” for “LC-MS/MS. A tandem mass spectrometer (TSQ Quantum Access, Thermo Scientific, San Jose, CA, USA) coupled with a Nanospace SI-2 LC system (Tokyo, Japan) was used.”

CYP2C8 = biological target: T2, CYP2C8 (Homo sapiens, UniProt P10632); assay: biochemical; conditions: for IC50: IC50 (μM) of honokiol, Amodiaquine N-deethylation
T2 sequence (P10632 1-490): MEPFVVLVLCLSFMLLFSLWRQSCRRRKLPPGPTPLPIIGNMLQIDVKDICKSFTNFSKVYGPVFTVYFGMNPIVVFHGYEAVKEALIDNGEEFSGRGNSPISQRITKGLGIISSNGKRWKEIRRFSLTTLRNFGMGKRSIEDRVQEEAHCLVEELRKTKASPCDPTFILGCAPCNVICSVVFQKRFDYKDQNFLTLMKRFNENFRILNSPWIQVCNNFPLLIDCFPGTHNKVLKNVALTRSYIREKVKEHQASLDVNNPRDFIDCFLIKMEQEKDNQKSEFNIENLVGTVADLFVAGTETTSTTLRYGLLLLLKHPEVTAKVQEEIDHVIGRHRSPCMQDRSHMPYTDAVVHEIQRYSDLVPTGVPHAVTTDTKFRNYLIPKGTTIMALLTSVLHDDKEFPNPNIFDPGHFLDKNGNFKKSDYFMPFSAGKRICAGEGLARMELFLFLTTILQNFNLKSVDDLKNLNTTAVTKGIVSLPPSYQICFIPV
Experimental: (§3) The inhibitory potential (IC50 values) of honokiol on CYP activities was evaluated in pooled human liver microsomes using liquid chromatography-tandem mass spectrometry (LC-MS/MS). […] Honokiol was dissolved in acetonitrile. […] After a 3 min preincubation at 37 °C, the reactions were initiated by addition of an NADP generating system and incubated for 15 min at 37 °C in a shaking water bath. The reaction was then stopped by placement of the tubes on ice and adding 100 μL of ice-cold methanol containing internal standards (^13C2, ^15N-acetaminophen for acetaminophen and N-deethylamodiaquine, and d9-1-hydroxybufuralol for 4-hydroxydiclofenac, 4-hydroxybupropion, 7-hydroxycoumarin, 4-hydroxymephenytoin, 1'-hydroxybufuralol, and 1'-hydroxymidazolam). The incubation mixtures were then centrifuged at 13,000 × g for 4 min. All incubations were performed in triplicate, and average values were used.
as §1
(§4) The metabolites formed from the seven CYP cocktail substrates were simultaneously determined according to our previously described LC-MS/MS method with minor modification; the concentration of 4-hydroxybupropion for CYP2B6 activity was quantified separately by LC-MS/MS. A tandem mass spectrometer (TSQ Quantum Access, Thermo Scientific, San Jose, CA, USA) coupled with a Nanospace SI-2 LC system (Tokyo, Japan) was used. The column and autosampler temperatures were 50 °C and 6 °C, respectively. The mass spectrometer was equipped with an electrospray ionization (ESI) source and operated in positive ion mode. The ESI source settings for ionization of the metabolites were as follows: capillary voltage, 4200 V; vaporizer temperature, 350 °C; capillary temperature 330 °C; sheath gas pressure, 35 psi; auxiliary gas pressure, 15 psi. Quantification was performed by selected reaction monitoring (SRM) of [M+H]^+ ions and the related product ions for each metabolite. […] Analytical data were processed using Xcalibur® software (Thermo Scientific).
(§5) The incubation mixtures were centrifuged at 13,000 × g for 4 min, and the supernatants were diluted as follows: dilution of 20 μL supernatant with 180 μL of 25% methanol for CYP2C8; dilution of 50 μL supernatant with 50 μL of water for CYP2C9, CYP2C19, CYP2D6, and CYP1A2; and dilution of 20 μL supernatant with 80 μL of water for CYP2B6. Aliquots (5 μL) of the diluted supernatants were then analyzed by LC-MS/MS.
(§6) The apparent kinetic parameters for inhibitory potential (Ki values) were estimated from the fitted curves using Enzyme Kinetics Ver. 1.1 software (Systat Software Inc.).

CYP2B6 = biological target: T3, CYP2B6 (Homo sapiens, UniProt P20813); assay: biochemical; conditions: for IC50: IC50 (μM) of honokiol, Bupropion hydroxylation
T3 sequence (P20813 1-491): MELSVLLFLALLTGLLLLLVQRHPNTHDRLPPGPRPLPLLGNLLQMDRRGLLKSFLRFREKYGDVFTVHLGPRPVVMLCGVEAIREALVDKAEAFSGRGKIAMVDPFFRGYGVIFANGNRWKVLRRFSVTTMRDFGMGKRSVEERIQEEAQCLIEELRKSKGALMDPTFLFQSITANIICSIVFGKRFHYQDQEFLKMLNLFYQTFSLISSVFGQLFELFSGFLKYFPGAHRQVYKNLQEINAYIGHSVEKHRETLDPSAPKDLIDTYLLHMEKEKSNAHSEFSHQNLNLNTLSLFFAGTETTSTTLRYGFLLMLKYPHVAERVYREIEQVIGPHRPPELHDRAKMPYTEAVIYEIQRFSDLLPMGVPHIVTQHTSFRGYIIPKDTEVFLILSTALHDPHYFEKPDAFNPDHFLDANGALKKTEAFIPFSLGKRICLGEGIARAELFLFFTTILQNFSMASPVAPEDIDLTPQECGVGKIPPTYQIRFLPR
Experimental: as §3, §1, §4, §5, §6

[1] = with preincubation, 30 min preincubation with NADPH

Chain of CYP3A4 (P08684 2-503): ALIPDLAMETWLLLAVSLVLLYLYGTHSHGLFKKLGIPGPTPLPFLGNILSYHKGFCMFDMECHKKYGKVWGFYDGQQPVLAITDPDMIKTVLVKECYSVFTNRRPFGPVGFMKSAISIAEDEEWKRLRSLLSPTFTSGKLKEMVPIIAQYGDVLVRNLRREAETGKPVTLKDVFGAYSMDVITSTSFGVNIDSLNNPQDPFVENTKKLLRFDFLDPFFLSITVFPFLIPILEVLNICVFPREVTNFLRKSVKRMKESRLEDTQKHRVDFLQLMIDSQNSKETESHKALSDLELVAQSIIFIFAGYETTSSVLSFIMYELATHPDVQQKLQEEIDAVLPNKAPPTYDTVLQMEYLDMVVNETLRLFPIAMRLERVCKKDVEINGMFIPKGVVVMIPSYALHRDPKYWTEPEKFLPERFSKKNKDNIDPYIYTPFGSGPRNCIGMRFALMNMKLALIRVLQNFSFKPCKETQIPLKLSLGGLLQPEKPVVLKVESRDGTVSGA

## C=CCc1ccc(O)c(-c2ccc(O)c(CC=C)c2)c1 [honokiol, 2-(4-hydroxy-3-prop-2-enyl-phenyl)-4-prop-2-enyl-phenol]
CYP3A4; no preincubation, 2.5 μM midazolam, pooled HLM (H161)
  IC50: 97.3 µM
CYP3A4; [1]
  IC50: 45.8 µM
CYP2A6
  IC50 (μM) of honokiol, no preincubation: No inhibition
  IC50 (μM) of honokiol, with preincubation: No inhibition
CYP2C8
  Ki: 4.9 µM
CYP2C8; no preincubation, 2.5 μM amodiaquine, pooled HLM (H161)
  IC50: 8.9 µM
CYP2C8; [1]
  IC50: 15.5 µM
CYP2B6
  Ki: 17.5 µM
CYP2B6; no preincubation, 50 μM bupropion, pooled HLM (H161)
  IC50: 13.8 µM
CYP2B6; [1]
  IC50: 20.8 µM
